The numbers were not newly measured in patent publication US20100285127A1, “TASTE MASKED PHARMACEUTICAL COMPOSITIONS OF S-ALKYLISOTHIOURONIUM DERIVATIVES” (priority 2007, published 2010), which cites them from elsewhere.

The conditions of this data set: Zherebchenko 1968; Goloschapova 1981.

Consider “S-ethylisothiouronium diethylphosphate [Difetur]”, for which the radioprotective effects entry is given as “radioprotective effects”.
